Key:
[1] = test system: MDA-MB-468 cells; assay: Cellular proliferation/cytotoxicity assay (Alamar Blue), MDA-MB-468; conditions: Homo sapiens, MDA-MB-468, 48 h, read-out: Anti-proliferative/cytotoxic activity: IC50 MDA468
Procedure: The anti-proliferative activity of the compounds as described herein, is evaluated using MCF7 and MDA-MB-468 (ATCC HTB-22 and HTB-132) cell lines and the Alamar Blue (Resazurin) cell viability assay (O'Brien et al. Eur J Biochem 267, 5421-5426, 2000). Resazurin is reduced to the fluorescent resorufin by cellular dehydrogenase activity, correlating with viable, proliferating cells. Test compounds are dissolved as 10 mM solutions in DMSO and subsequently diluted. MCF7 or MDA-MB-434 cells were seeded into 96 well flat bottom plates at a density of 10000 cells/well (MCF7) or 5000 cells/well (MDA-MB-468) in a volume of 200 μl/well. 24 hours after seeding, 1 μl each of the compound dilutions are added into each well of the 96 well plates. Each compound dilution is tested as at least as duplicates. Wells containing untreated control cells were filled with 200 μl DMEM containing 0.5% v:v DMSO. The cells are then incubated with the substances for 48 hours at 37° C. in a humidified atmosphere containing 5% carbon dioxide. To determine cell viability, 20 μl of a Resazurin solution (Sigma; 90 mg/l) are added. After 4 hours incubation at 37° C. the fluorescence is measured at an extinction of 544 nm and an emission of 590 nm (Wallac Victor2; Perkin Elmer, USA). For the calculation of the cell viability the emission value from untreated cells is set as 100% viability and the emission rates of treated cells are set in relation to the values of untreated cells. Viabilities are expressed as % values. The corresponding IC50 values of the compounds for cytotoxic activity are determined from the concentration-effect curves by means of non-linear regression. The analysis of the data is performed using a biostatistical program (GraphPad Prism, USA).

[2] = target: T1, full-length Akt1 (inactive) (Homo sapiens, UniProt P31749); assay: Biochemical Akt1 assay (full-length Akt1 inactive, PDK1-dependent activation, IMAP); conditions: PDK1 and PIP3 vesicles, 50 μM ATP; read-out: Inhibition of Akt1 activation (full-length Akt1, inactive): IC50
T1 construct: recombinant full-length human Akt1 a containing N-terminal His6 tag; His6 (N); purchased Upstate, UK #14-279; host or cells: baculovirus infected Sf21 insect cells
T1 sequence (P31749 whole entry): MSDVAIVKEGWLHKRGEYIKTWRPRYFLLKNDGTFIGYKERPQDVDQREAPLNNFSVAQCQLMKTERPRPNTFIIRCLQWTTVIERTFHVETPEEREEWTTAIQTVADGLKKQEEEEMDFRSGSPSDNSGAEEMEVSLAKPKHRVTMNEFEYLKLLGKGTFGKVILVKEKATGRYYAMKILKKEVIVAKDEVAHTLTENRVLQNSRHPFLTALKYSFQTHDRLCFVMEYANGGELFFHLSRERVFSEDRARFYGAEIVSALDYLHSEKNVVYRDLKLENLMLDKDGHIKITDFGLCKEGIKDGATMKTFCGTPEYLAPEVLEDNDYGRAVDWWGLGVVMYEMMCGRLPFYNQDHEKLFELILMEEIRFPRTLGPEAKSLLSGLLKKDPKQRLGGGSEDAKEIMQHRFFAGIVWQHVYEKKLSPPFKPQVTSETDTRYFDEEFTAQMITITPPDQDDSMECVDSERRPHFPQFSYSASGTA
Procedure: The enzyme is purified using Ni2+/NTA-agarose (Upstate, UK; #14-279).
The enzyme is purified using Ni2+/NTA-agarose.
PDK1-dependent activation and subsequent enzymatic activity of Akt1: Activity of purified human Akt1 is routinely measured in an assay in which the enzyme is first activated by PDK1 in the presence of phosphatidylinositol-3,4,5-triphosphate (PIP3). Once activated, Akt1-dependent phosphorylation of a fluorescence labelled peptide substrate is measured by fluorescence polarisation using the IMAP technology (Molecular Devices).
The phospholipids are prepared as follows: 5 mg DOPC/DOPS are solved in 200 μl 10 mM Tris (pH 7.4) and 300 μg PIP3 are resuspended in 950 μl 10 mM Tris (pH 7.4) by pipetting. 950 μl solved PIP3 are mixed with 50 μl solved DOPC/DOPS and incubated for 2 h at a temperature below 20° C. Then the mixture is subjected to sonification for 30 min. at max. power until a translucent phopholipid vesicle preparation is obtained. Aliquots of the vesicle suspension are frozen at -80° C. until needed, likewise the solved DOPC/DOPS.
Assays are performed in 384-well plates. Incubations are carried out for 60 min. at room temperature. The reaction buffer mixture contained in a final volume of 25 μl: 10 mM Tris pH 7,4, 10 mM MgCl2. 1 mM DTT, and 0.1 mg/ml BSA. In contrast the activation buffer contained: 50 ng/well Akt1, 20 ng/well PDK1, 1.25 μM peptide substrat, 50 μM ATP, and phospholipid vesicles (1:20). Test compounds are added from stock solutions in DMSO before activation of Akt1 by PDK1. After the incubation the beads (IMAP binding reagent; Molecular Devices; 1:167) are added and the fluorescence polarization is measured (excitation 485 nm, emission 530 nm).

[3] = target: T2, full-length Akt1 (active) (Homo sapiens, UniProt P31749); assay: Biochemical Akt1 assay (full-length Akt1 active, flashplate, Crosstide); conditions: 100 nM ATP, Crosstide substrate; read-out: Akt1 inhibition (full-length Akt1, active): IC50
T2 construct: recombinant full-length human Akt1, containing N-terminal His6 tag; His6 (N); GST (N); purchased Upstate, UK #14-276; host or cells: baculovirus infected Sf21 insect cells
T2 sequence (P31749 whole entry): as above
Description: For the biochemical Akt1 assay recombinant full-length human Akt1, containing N-terminal His6 tag is cloned and expressed in baculovirus infected Sf21 insect cells. Akt1 is activated with GST-MAPKAP-K2 and PDK1, and repurified on Ni2+/NTA-agrose and glutathioneagarose (Upstate, UK; #14-276).
In order to study the inhibition of Akt1 (full-length version) according to the invention, a flashplate-based assay has been developed.
The full-length Akt1 assay is a biochemical assay using Akt1 N-terminally fused to GST and co-expressed with PDKI in insect cells. The Akt1 assay is run in 96 well plates by incubating 500 ng/well GST-Akt1, 1 μM Crosstide (N-terminally biotinylated synthetic peptide (KGSGSGRPRTSSFAEG) Upstate, #12-385) as substrate, 10 μl of test compound (test compounds were dissolved as 10 mM solutions in dimethylsulfoxide (DMSO) and subsequently diluted) and 100 nM ATP (including ^33P-ATP) in 100 μl of reaction buffer (50 mM HEPES, pH7,5; 3 mM MgCl2; 3 mM MnCl2; 3 μM Na-Orthovanadat; 1 mM DTT; 1 μg/ml PEG8000) for 60 minutes at 30° C. in 96 well microtiter plates. The reactions are terminated by adding 100 μl stopping buffer (5M NaCl, 35 mM EDTA pH 8.0) for 5 minutes. 190μl of the reaction mixture are transferred into streptavidin-coated Flashplates (Perkin Elmer, #SMP-103) and incubated for further 30 minutes at room temperature. The plates are washed 3 times by using washing buffer (0.9% NaCl). Relying on the incorporation of ^33P into the peptide substrate crosstide, the detection is based on the specific binding of the biotinylated peptide to the streptavidin-coated surface of scintillator-coated flash plates (NEN, USA; #SMP-103). This phosphorylation is measured by counting the plate for 60 sec. using a plate reader (Wallac Microbeta; Perkin Elmer, USA).

| IC50 [2] | IC50 [3] | Compound | IC50 [1] |
| --- | --- | --- | --- |
| ≤ 5 µM | ≤ 4.03 µM | COc1cccc(-c2ccc(-c3cc4c(Br)cnn4c(Nc4ccc(NC(=O)c5ccc(CN)cc5)cc4)n3)cc2)c1 [Example 87, 4-Aminomethyl-N-{4-[3-bromo-5-(3′-methoxy-biphenyl-4-yl)-pyrazolo[1,5-c]pyrimidin-7-ylamino]-phenyl}-benzamide] | ≤ 13.6 µM |
| ≤ 5 µM | ≤ 4.03 µM | O=C(Nc1cccc(Nc2nc(-c3cccc4c3oc3ccccc34)cc3ccnn23)c1)c1ccc2c(c1)CCNC2 [Example 63, 1,2,3,4-Tetrahydro-isoquinoline-6-carboxylic acid [3-(5-dibenzofuran-4-yl-pyrazolo[1,5-c]pyrimidin-7-ylamino)-phenyl]-amide] | ≤ 13.6 µM |
| ≤ 5 µM | ≤ 4.03 µM | COc1cccc(-c2ccc(-c3cc4ccnn4c(Nc4ccc(NC(=O)c5ccc(CN)cc5)cc4)n3)cc2)c1 [Example 59, 4-Aminomethyl-N-{4-[5-(3′-methoxy-biphenyl-4-yl)-pyrazolo[1,5-c]pyrimidin-7-ylamino]-phenyl}-benzamide] | ≤ 13.6 µM |
| ≤ 5 µM | ≤ 4.03 µM | NCCCC(=O)Nc1ccc(Nc2nc(-c3cccc4c3oc3ccccc34)cc3ccnn23)cc1 [Example 24, 4-Amino-N-[4-(5-dibenzofuran-4-yl-pyrazolo[1,5-c]pyrimidin-7-ylamino)-phenyl]-butyramide] | ≤ 13.6 µM |

Source: patent US7745446B2, “Pyrazolo[1,5-c]pyrimidines” (Bayer Schering Pharma Aktiengesellschaft, priority 2004, dated 2010)
